Source: the NIST ThermoML archive (doi:10.1016/j.fluid.2006.10.027)
Numbers after ± are expanded uncertainties.

Experiment: xn = mol fraction of the nth substance listed
Conditions: 101 kPa, Liquid, Capillary tube (Ostwald / Ubbelohde) method, x1 = 0.38

CC(C)C(=O)O [2-methylpropanoic acid] + O
Conditions | viscosity [mPa·s]
300.25 K | 2.21 ± 0.02
300.33 K | 2.205 ± 0.02
300.36 K | 2.204 ± 0.02
300.49 K | 2.197 ± 0.02
300.61 K | 2.19 ± 0.02
300.66 K | 2.187 ± 0.02
300.76 K | 2.182 ± 0.02
300.87 K | 2.176 ± 0.038
300.96 K | 2.171 ± 0.038
301.09 K | 2.164 ± 0.039
301.16 K | 2.16 ± 0.039
301.26 K | 2.154 ± 0.038
301.36 K | 2.149 ± 0.038
301.49 K | 2.142 ± 0.038
301.56 K | 2.138 ± 0.038
301.85 K | 2.122 ± 0.038
302.16 K | 2.105 ± 0.019
302.46 K | 2.088 ± 0.038
